Results as given in ChEMBL document CHEMBL5523764, “Discovery of NO Donor-Aurovertin Hybrids as Dual Ferroptosis and Apoptosis Inducers for Treating Triple Negative Breast Cancer” (J Med Chem, 2024).
Active and inactive are the calls of the source. The rule behind the calls is not given here.

Key:
MDA-MB-231 [1] = assay: Induction of apoptosis in human MDA-MB-231 cells assessed as late apoptotic cells at 0.25 uM by Annexin V-FITC staining based flow cytometric analysis (reference value: 0.02 %); format: functional
[2] = Acute toxicity in ip female ICR mouse assessed as lethal dose measured after 2 days; format: organism-based; conditions: in vivo, time 2 day
4T1 [3] = assay: Downregulation of phosphorylated mTOR protein level at Ser2448 residue in mouse 4T1 cells at 0.02 to 2.5 uM incubated for 24 hrs by Western blot analysis; format: functional, cell-based; conditions: dose 0.02-2.5 µM
[4] = Drug metabolism in nude mouse xenografted with human MDA-MB-231 cells assessed as aurovertin-B release at 10 to 20 mg/kg, ip administered for 30 days by LC-MS/MS analysis; format: ADME, organism-based; conditions: in vivo, 720 h, dose 10-20 mg/kg, time 30 day
MDA-MB-231 [5] = assay: Upregulation of Bax expression in human MDA-MB-231 cells at 0.25 to 1 uM by Western blot analysis; format: functional, cell-based; conditions: dose 0.25-1 µM
4T1 [6] = assay: Downregulation of phosphorylated AKT protein level at Ser473 residue in mouse 4T1 cells at 0.02 to 2.5 uM incubated for 24 hrs by Western blot analysis; format: functional, cell-based; conditions: dose 0.02-2.5 µM
[7] = Acute toxicity in female ICR mouse assessed as spleen pathological abnormalities at 50 mg/kg, ip measured after 2 days; format: organism-based; conditions: in vivo, 48 h, time 2 day
Mitochondria = assay: Induction of ROS accumulation in mitochondria of human MDA-MB-231 cells at 0.25 to 1 uM by MitoSOX probe based flow cytometric analysis; format: functional; conditions: dose 0.25-1 µM
MDA-MB-231 [8] = assay: Induction of apoptosis in human MDA-MB-231 cells assessed as late apoptotic cells at 0.5 uM by Annexin V-FITC staining based flow cytometric analysis (reference value: 0.02 %); format: functional
MDA-MB-231 [9] = assay: Induction of apoptosis in human MDA-MB-231 cells assessed as viable cells at 0.25 uM by Annexin V-FITC staining based flow cytometric analysis (reference value: 91.03%); format: functional; conditions: read-out: Activity
4T1 [10] = assay: Downregulation of phosphorylated AKT protein level at Thr308 residue in mouse 4T1 cells at 0.02 to 2.5 uM incubated for 24 hrs by Western blot analysis; format: functional, cell-based; conditions: dose 0.02-2.5 µM
MDA-MB-231 [11] = assay: Induction of apoptosis in human MDA-MB-231 cells assessed as upregulation of cleaved caspase-3 expression at 0.25 to 1 uM by Western blot analysis; format: functional, cell-based; conditions: dose 0.25-1 µM
MDA-MB-231 [12] = assay: Antimigratory activity in human MDA-MB-231 cells assessed as inhibition of cell migration at 0.02 to 0.5 uM incubated for 24 hrs by scratch assay; format: functional, cell-based; conditions: dose 0.02-0.5 µM
[13] = Acute toxicity in female ICR mouse assessed as kidney pathological abnormalities at 50 mg/kg, ip measured after 2 days; format: organism-based; conditions: in vivo, 48 h, time 2 day
MDA-MB-231 [14] = assay: Inhibition of Bcl-xl expression in human MDA-MB-231 cells at 0.25 to 1 uM by Western blot analysis; format: functional, cell-based; conditions: dose 0.25-1 µM
MDA-MB-231 [15] = assay: Inhibition of cell adhesion in human MDA-MB-231 cells assessed as rounded form appearance of cells at 0.02 to 0.5 uM incubated for 24 hrs by microscopic analysis; format: functional, cell-based; conditions: dose 0.02-0.5 µM
T47D = assay: Antiproliferative activity against human T47D cells assessed as reduction in cell viability incubated for 72 hrs by MTT assay; format: functional, cell-based
[16] = Acute toxicity in female ICR mouse assessed as effect on body weight at <40 mg/kg, ip measured within 24 hrs; format: organism-based; conditions: in vivo
MDA-MB-231 [17] = assay: Antitumor activity against human MDA-MB-231 cells xenografted in nude mouse assessed as reduction in tumor size at 10 to 20 mg/kg, ip administered for 30 days; format: functional, organism-based; conditions: dose 10-20 mg/kg, time 30.0 day
MDA-MB-468 = assay: Antiproliferative activity against human MDA-MB-468 cells assessed as reduction in cell viability incubated for 72 hrs by MTT assay; format: functional, cell-based; conditions: MDA-MB-468, 72 h
MDA-MB-231 [18] = assay: Induction of ferroptosis in human MDA-MB-231 cells assessed as decrease in GPX4 expression in presence of Fer-1 by Western blot analysis; format: functional, cell-based
MDA-MB-231 [19] = assay: Antiproliferative activity against human MDA-MB-231 cells assessed as inhibition of cell growth at 0.01 to 100 uM incubated for 72 hrs in presence of Fer-1 by MTT assay; format: functional, cell-based; conditions: dose 0.01-100 µM
Cell membrane = assay: Induction of mitochondrial membrane loss in human MDA-MB-231 cells assessed as increase in ratio of green fluorescence at 0.25 to 1 uM incubated for 24 hrs by JC-1 staining based; format: cell membranes; conditions: dose 0.25-1 µM
MDA-MB-231 [20] = assay: Antitumor activity against human MDA-MB-231 cells xenografted in nude mouse assessed as reduction in tumor volume at 10 to 20 mg/kg, ip administered for 30 days; format: functional, organism-based; conditions: dose 10-20 mg/kg, time 30.0 day
[21] = Acute toxicity in female ICR mouse assessed as effect on behavior at <40 mg/kg, ip measured within 24 hrs; format: organism-based; conditions: in vivo
[22] = Acute toxicity in female ICR mouse assessed as liver pathological abnormalities at 50 mg/kg, ip measured after 2 days; format: organism-based; conditions: in vivo, 48 h, time 2 day
MDA-MB-231 [23] = assay: Induction of apoptosis in human MDA-MB-231 cells assessed as necrotic cells at 1 uM by Annexin V-FITC staining based flow cytometric analysis (reference value: 7.98 %); format: functional
4T1 [24] = assay: Antiproliferative activity against mouse 4T1 cells assessed as reduction in cell viability incubated for 72 hrs by MTT assay; format: functional, cell-based; conditions: 4T1, 72 h
MDA-MB-231 [25] = assay: Induction of ferroptosis in human MDA-MB-231 cells assessed as decrease in FTH1 expression by Western blot analysis; format: functional, cell-based; conditions: dose 0.25-1 µM
MDA-MB-231 [26] = assay: Antiproliferative activity against human MDA-MB-231 cells assessed as reduction in cell viability incubated for 72 hrs by MTT assay; format: functional, cell-based; conditions: MDA-MB-231, 72 h
MCF7 = assay: Antiproliferative activity against human MCF7 cells assessed as reduction in cell viability incubated for 72 hrs by MTT assay; format: functional, cell-based; conditions: MCF7, 72 h

With `CC[C@H]1O[C@@]2(C)[C@H](OC(C)=O)[C@@]1(C)O[C@@H](/C=C/C=C/C=C/c1oc(=O)cc(OC)c1C)[C@@H]2OC(=O)CCC(=O)OC/C=C/COc1no[n+]([O-])c1S(=O)(=O)c1ccccc1` the Activity (MDA-MB-231 [1]) was 5.82%, the LD50 at 48 h [2] was 103 mg/kg and the Activity (4T1 [3]) was “Active”. The Drug metabolism [4] was “Metabolite_Detected”, the Activity (MDA-MB-231 [5]) was “Active” and the Activity (4T1 [6]) was “Active”. The Activity [7] was “Non-Toxic”, the Activity (Mitochondria) was “Active” and the Activity (MDA-MB-231 [8]) was 8.01%. The viability at 0.25 µM (MDA-MB-231 [9]) was 80.8%, the Activity (4T1 [10]) was “Active” and the Activity (MDA-MB-231 [11]) was “Active”. For the same compound, the Activity (MDA-MB-231 [12]) was “Active”, the Activity [13] was “Non-Toxic” and the inhibition (MDA-MB-231 [14]) was “Active”. The inhibition (MDA-MB-231 [15]) was “Active”, the IC50 (T47D) was > 50000 nM and the Activity [16] was “Non-Toxic”. For the same compound, the Activity (MDA-MB-231 [17]) was “Active”, the IC50 (MDA-MB-468) was 450 nM and the Activity (MDA-MB-231 [18]) was “inactive”. For the same compound, the Activity (MDA-MB-231 [19]) was “inactive”, the Activity (Cell membrane) was “Active” and the Activity (MDA-MB-231 [20]) was “Active”. The Activity [21] was “Non-Toxic”, the Activity [22] was “Non-Toxic” and the Activity (MDA-MB-231 [23]) was 1.42%. For the same compound, the IC50 (4T1 [24]) was 870 nM, the Activity (MDA-MB-231 [25]) was “Dose-Dependent Effect” and the IC50 (MDA-MB-231 [26]) was 630 nM. For the same compound, the IC50 (MCF7) was > 50000 nM.
